Reference: publication PMC10682394, “A papain-like cysteine protease-released small signal peptide confers wheat resistance to wheat yellow mosaic virus” (Nature Communications, 2023)
Peptide text beside a SMILES is read from it. * marks the point of attachment. AMC = Cc1cc(=O)oc2cc(N*)ccc12; Cbz = O=C(OCc1ccccc1)*

Target: T1, TaRD21A (TaRD21A^S; TaRD21A^R in A96S rows) (Triticum aestivum, UniProt A0A3B6DKH2)
T1 construct: gene LOC123054921; GST fusion from E. coli BL21 (purified), or RFP fusion expressed in N. benthamiana leaves (apoplastic fluid); active bands 25-40 kDa
Experiment: fluorescent substrate assay, purified TaRD21A^S-GST
Type: biochemical
Conditions: 10 uM substrate

T1 sequence (A0A3B6DKH2 24-463, stated change not applied): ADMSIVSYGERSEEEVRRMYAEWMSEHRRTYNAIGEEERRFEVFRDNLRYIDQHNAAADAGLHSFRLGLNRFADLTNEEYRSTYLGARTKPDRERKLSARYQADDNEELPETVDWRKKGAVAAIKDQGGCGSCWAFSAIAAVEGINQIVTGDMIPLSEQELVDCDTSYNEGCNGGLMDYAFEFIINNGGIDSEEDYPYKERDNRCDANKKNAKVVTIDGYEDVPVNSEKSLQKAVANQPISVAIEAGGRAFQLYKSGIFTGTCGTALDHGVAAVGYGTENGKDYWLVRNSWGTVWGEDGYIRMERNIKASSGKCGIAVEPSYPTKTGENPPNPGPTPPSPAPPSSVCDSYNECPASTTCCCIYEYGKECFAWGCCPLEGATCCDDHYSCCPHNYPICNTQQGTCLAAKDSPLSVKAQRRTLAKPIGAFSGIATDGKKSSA

## Cc1cc(=O)oc2cc(NC(=O)[C@H](CCCNC(=N)N)NC(=O)[C@H](CCCNC(=N)N)NC(=O)OCc3ccccc3)ccc12 [Z-Arg-Arg-AMC] (Cbz-Arg-Arg-{AMC})
RR motif
  fluorescent substrate assay, purified TaRD21A^S-GST: examined using fluorescent substrates containing RR/FR motifs

## Cc1cc(=O)oc2cc(NC(=O)[C@H](CCCNC(=N)N)NC(=O)[C@H](Cc3ccccc3)NC(=O)OCc3ccccc3)ccc12 [Z-Phe-Arg-7-amido-4-methylcoumarin] (Cbz-Phe-Arg-{AMC})
FR motif
  fluorescent substrate assay, purified TaRD21A^S-GST: examined using fluorescent substrates containing RR/FR motifs
